± gives the standard deviation of the averaged measurements.
Experiments:
HL-60 = assay: cell viability (% survival relative to DMSO control); higher = less cytotoxic; settings: 72 h
Outline: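 In 384-well plates, the full library was rescreened in duplicate on HL-60 cells in RPMI 1640 with 10% FBS, at 1–10,000 nM in five tenfold concentrations, for 72 h at 37 °C, 5% CO2. Each run also held DMSO or 100 nM of one of three metabolic inhibitors. Viability was measured by CellTiter-Glo and normalised to DMSO wells and to wells with proteasome inhibitor, present at 10 μM. Any area under the curve comes from four-parameter log-logistic fitting with drc and PharmacoGx.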

LAMA-84 = assay: cell viability (% survival relative to DMSO control, bortezomib = 0%); higher = less cytotoxic; settings: 72 h
Outline: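 After 72 h at 37 °C with 5% CO2, cell viability in 384-well plates was measured by CellTiter-Glo luminescence. The plates held compounds pre-printed at 1, 10, 100, 1000 or 10000 nM in duplicate, and cells from 10 AML and 5 CML lines seeded at densities titrated to linear growth. Percent survival is the duplicate mean, normalised to vehicle as 100% and a 10 µM positive control as 0%.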

[1] = 0.001 µM, co-treatment: AZD3965 100 nM
[2] = 0.001 µM, co-treatment: DMSO vehicle
[3] = 0.001 µM, co-treatment: GSK2194069 100 nM
[4] = 0.001 µM, co-treatment: pictilisib 100 nM
[5] = 0.01 µM, co-treatment: AZD3965 100 nM
[6] = 0.01 µM, co-treatment: DMSO vehicle
[7] = 0.01 µM, co-treatment: GSK2194069 100 nM
[8] = 0.01 µM, co-treatment: pictilisib 100 nM
[9] = 0.1 µM, co-treatment: AZD3965 100 nM
[10] = 0.1 µM, co-treatment: DMSO vehicle
[11] = 0.1 µM, co-treatment: GSK2194069 100 nM
[12] = 0.1 µM, co-treatment: pictilisib 100 nM
[13] = 1 µM, co-treatment: AZD3965 100 nM
[14] = 1 µM, co-treatment: DMSO vehicle
[15] = 1 µM, co-treatment: GSK2194069 100 nM
[16] = 1 µM, co-treatment: pictilisib 100 nM
[17] = 10 µM, co-treatment: AZD3965 100 nM
[18] = 10 µM, co-treatment: DMSO vehicle
[19] = 10 µM, co-treatment: GSK2194069 100 nM
[20] = 10 µM, co-treatment: pictilisib 100 nM

SMILES	cell viability (HL-60; [1]) [%]	cell viability (HL-60; [2]) [%]	cell viability (HL-60; [3]) [%]	cell viability (HL-60; [4]) [%]	cell viability (HL-60; [5]) [%]	cell viability (HL-60; [6]) [%]	cell viability (HL-60; [7]) [%]	cell viability (HL-60; [8]) [%]	cell viability (HL-60; [9]) [%]	cell viability (HL-60; [10]) [%]	cell viability (HL-60; [11]) [%]	cell viability (HL-60; [12]) [%]	cell viability (HL-60; [13]) [%]	cell viability (HL-60; [14]) [%]	cell viability (HL-60; [15]) [%]	cell viability (HL-60; [16]) [%]	cell viability (HL-60; [17]) [%]	cell viability (HL-60; [18]) [%]	cell viability (HL-60; [19]) [%]	cell viability (HL-60; [20]) [%]	cell viability (LAMA-84; 1 nM) [%]	cell viability (LAMA-84; 10 nM) [%]	cell viability (LAMA-84; 100 nM) [%]	cell viability (LAMA-84; 1000 nM) [%]	cell viability (LAMA-84; 10000 nM) [%]
COc1ccc(CNC(=O)Nc2ncc([N+](=O)[O-])s2)cc1	99.1 ± 14	103 ± 2.9	89.7 ± 16	84 ± 31	97.6 ± 3.6	94.7 ± 4.3	81 ± 3.1	103 ± 5.9	102 ± 4.4	99.35 ± 0.68	106 ± 3.5	106 ± 3.8	91.4 ± 3.9	102 ± 1.5	86.5 ± 5.7	96.3 ± 4.1	95.2 ± 1.6	107 ± 7.6	116 ± 7.2	105 ± 9.1	109	105	110	104	108
O=C(O)C(=O)CBr [3-bromopyruvic acid]	99.1 ± 3.7	99.1 ± 2	97.451 ± 0.0089	112 ± 3.5	101 ± 3.3	99.308 ± 0.03	96.2 ± 15	93.8 ± 6.9	99.2 ± 2.7	97.7 ± 1.7	98.9 ± 3.1	92.943 ± 0.068	98.3 ± 2.4	99.6 ± 2.4	103 ± 4	97.2 ± 8.2	95.8 ± 3.9	98 ± 1.7	98.5 ± 5.4	96.5 ± 13	90.8	101	99.5	99.4	98
CN(C)c1cc(NC(=O)CNC(C)(C)C)c(O)c2c1C[C@H]1C[C@H]3[C@H](N(C)C)C(=O)C(C(N)=O)C(=O)[C@@]3(O)C(=O)C1C2=O (stereo not given in full) [Tigecycline]	103 ± 5.2	102 ± 6.9	101.8 ± 0.14	97.3 ± 1.4	98.51 ± 0.53	102.7 ± 0.82	96.3 ± 14	100 ± 1.1	106 ± 2.4	105 ± 2.6	101 ± 6	103.3 ± 0.24	103 ± 5	101.5 ± 0.45	96.7 ± 1.9	101.8 ± 0.58	101 ± 3.3	105 ± 3.9	103 ± 11	102 ± 11	105	94.3	105	102	90
CCCCN1C[C@H](O)[C@@H](O)[C@H](O)[C@H]1CO [Miglustat]	106 ± 3.3	101 ± 5.3	91.5 ± 4.9	104 ± 2.5	98.2 ± 7.3	101 ± 7.8	94.4 ± 10	109 ± 10	106 ± 6.2	103 ± 5.5	104.5 ± 0.19	112 ± 28	96.6 ± 2.6	98.7 ± 2	99.5 ± 5.5	107 ± 3.2	100 ± 4.3	98 ± 1.2	101 ± 8.5	101 ± 4.7	94.3	97.8	96.4	103	92.8
COc1ccc(S(=O)(=O)N2CCN(S(=O)(=O)c3ccc4c(c3)OCCO4)CC2)cc1 [BML283]	101.4 ± 0.56	102 ± 1.8	99.2 ± 4.8	105 ± 6	96.5 ± 11	86.2 ± 23	74.9 ± 37	74.7 ± 30	107 ± 2.3	103 ± 1.7	99.56 ± 0.47	100.2 ± 0.69	104 ± 9.1	107 ± 7.4	99.4 ± 1.7	90.1 ± 7.7	84 ± 9.5	97.1 ± 1.6	98.6 ± 6.9	77.4 ± 14	101	93.8	100	103	106
O=C(O)c1cc(N=Nc2ccc(S(=O)(=O)Nc3ccccn3)cc2)ccc1O [Sulfasalazine]	101.5 ± 0.52	101 ± 2.6	105 ± 4.2	107 ± 8.6	109 ± 3.5	101.7 ± 0.78	103 ± 3.4	103 ± 3.5	96 ± 2.6	98.9 ± 3	101 ± 1.2	93.57 ± 0.82	97.23 ± 0.95	100.2 ± 0.32	103 ± 1.9	92.3 ± 1.4	111 ± 8.6	104 ± 5.3	105 ± 5.2	112 ± 6.6	105	97.1	101	106	105
O=C(O)CCCCC(CCSCc1ccccc1)SCc1ccccc1 (stereo not given) [CPI-613]	102 ± 4.3	98.6 ± 2.1	97.55 ± 0.73	105 ± 4.5	97.3 ± 4.7	101 ± 3.1	101 ± 2.7	98.8 ± 8.4	98.6 ± 4.9	95.2 ± 9	89.4 ± 20	88.5 ± 24	104 ± 2.1	103 ± 9.6	104 ± 11	103 ± 13	105 ± 3.5	108 ± 6.2	107.3 ± 0.4	107 ± 2.6	106	98.3	96.5	96.8	97.5
CCCc1cc(-c2nc(-c3ccc(C)cc3)cs2)ccn1 [Fatostatin]	75.1 ± 31	92.9 ± 9.1	95.9 ± 4.6	90.3 ± 5.6	101.7 ± 0.39	96.1 ± 6.7	94.22 ± 0.22	97.8 ± 3.4	102 ± 2.5	101 ± 4.4	96.1 ± 8.5	105 ± 6.5	103 ± 7.9	98.5 ± 4.1	92.5 ± 13	96.7 ± 17	79.9 ± 18	94.39 ± 0.83	70.7 ± 7	63.5 ± 11	105	92.2	104	109	79.8
O[C@H]1[C@H]2[C@H](O)CCCN2C[C@H]1O [Swainsonine]	97.6 ± 3.9	99.37 ± 0.87	98.4 ± 2.5	101 ± 4.7	103.58 ± 0.00097	104 ± 3.2	110 ± 12	108 ± 11	97.5 ± 0.97	102 ± 3.9	97.2 ± 3	91.9 ± 9.1	98.4 ± 5.8	103 ± 0.51	90.3 ± 3.1	120 ± 25	102 ± 2.5	108 ± 13	106 ± 16	106 ± 11	112	94	103	99.7	98.6

Reference: the supplement of paper PMC8671470
